Results reported in ChEMBL document CHEMBL5726074, “Histone demethylase inhibitors” (2017).

Assays:
[1] = molecular target: T1, Lysine-specific demethylase 4C (Homo sapiens, UniProt Q9H3R0); test: Enzymatic Assay: The ability of test compounds to inhibit the activity of JMJD2C was determined in 384-well plate format under the following reaction conditions: 0.3 nM JMJD2C, 300 nM H3K9me3-biotin labeled peptide (Anaspec cat #64360), 2 μM alpha-ketoglutaric acid in assay buffer of 50 mM HEPES, pH7.3, 0.005% Brij35, 0.5 mM TCEP, 0.2 mg/ml BSA, 50 μM sodium L-ascorbate, and 2 μM ammonium iron(II) sulfate. Reaction product was determined quantitatively by TR-FRET after the addition of detection reagent Phycolink Streptavidin-allophycocyanin (Prozyme) and Europium-anti-di-methylated histone H3 lysine 9 (H3K9me2) antibody (PerkinElmer) in the presence of 5 mM EDTA in LANCE detection buffer (PerkinElmer) at a final concentration of 50 nM and 1 nM, respectively.The assay reaction was initiated by the following: 2 μl of the mixture of 900 nM H3K9me3-biotin labeled peptide and 6 μM alpha-ketoglutaric acid with 2 μl of 11-point serial diluted inhibitor in 3% DMSO were added to each well of the plate, followed by the addition of 2 μl of 0.9 nM JMJD2C to initiate the reaction. The reaction mixture was incubated at room temperature for 30 minutes, and terminated by the addition of 6 μl of 5 mM EDTA in LANCE detection buffer containing 100 nM Phycolink Streptavidin-allophycocyanin and 2 nM Europium-anti-H3K9me2 antibody. […]
T1 sequence (Q9H3R0 whole entry): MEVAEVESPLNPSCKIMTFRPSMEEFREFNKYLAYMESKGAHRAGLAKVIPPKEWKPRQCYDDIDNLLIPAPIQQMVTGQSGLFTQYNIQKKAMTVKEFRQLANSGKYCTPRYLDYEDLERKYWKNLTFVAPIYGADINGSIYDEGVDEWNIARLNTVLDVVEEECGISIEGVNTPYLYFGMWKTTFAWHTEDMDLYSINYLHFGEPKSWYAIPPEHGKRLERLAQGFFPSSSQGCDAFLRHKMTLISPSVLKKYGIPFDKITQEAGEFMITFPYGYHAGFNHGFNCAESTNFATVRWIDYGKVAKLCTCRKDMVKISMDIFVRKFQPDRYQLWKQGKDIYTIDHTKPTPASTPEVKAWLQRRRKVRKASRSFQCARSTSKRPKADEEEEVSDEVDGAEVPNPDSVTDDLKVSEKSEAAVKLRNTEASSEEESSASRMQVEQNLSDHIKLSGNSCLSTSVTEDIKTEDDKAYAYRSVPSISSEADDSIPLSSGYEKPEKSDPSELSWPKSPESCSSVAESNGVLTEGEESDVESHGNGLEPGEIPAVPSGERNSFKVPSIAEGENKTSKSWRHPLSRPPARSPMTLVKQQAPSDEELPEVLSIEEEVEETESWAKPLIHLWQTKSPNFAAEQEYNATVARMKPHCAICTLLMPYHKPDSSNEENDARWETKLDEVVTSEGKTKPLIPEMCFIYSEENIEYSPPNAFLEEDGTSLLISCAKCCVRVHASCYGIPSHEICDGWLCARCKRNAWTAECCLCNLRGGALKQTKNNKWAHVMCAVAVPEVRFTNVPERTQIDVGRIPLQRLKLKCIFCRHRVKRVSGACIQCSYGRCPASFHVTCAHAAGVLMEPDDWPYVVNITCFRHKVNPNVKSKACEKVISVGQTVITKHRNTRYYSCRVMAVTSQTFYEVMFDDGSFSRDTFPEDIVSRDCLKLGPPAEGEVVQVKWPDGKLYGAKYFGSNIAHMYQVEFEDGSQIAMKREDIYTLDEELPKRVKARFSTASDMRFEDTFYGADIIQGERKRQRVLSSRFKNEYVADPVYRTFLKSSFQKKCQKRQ

[2] = molecular target: Lysine-specific demethylase 5B (Homo sapiens, UniProt Q9UGL1); test: Enzymatic Assay: The ability of test compounds to inhibit the activity of Jarid1B was determined in 384-well plate format under the following reaction conditions: 0.8 nM Jarid1B, 300 nM H3K4me3-biotin labeled peptide (Anaspec cat #64357), 2 μM alpha-ketoglutaric acid in assay buffer of 50 mM HEPES, pH7.3, 0.005% Brij35, 0.5 mM TCEP, 0.2 mg/ml BSA, 50 μM sodium L-ascorbate, and 2 μM ammonium iron(II) sulfate. Reaction product was determined quantitatively by TR-FRET after the addition of detection reagent Phycolink Streptavidin-allophycocyanin (Prozyme) and Europium-anti-mono- or di-methylated histone H3 lysine 4 (H3K4me1-2) antibody (PerkinElmer) in the presence of 5 mM EDTA in LANCE detection buffer (PerkinElmer) at a final concentration of 25 nM and 1 nM, respectively.The assay reaction was initiated by the following: 2 μl of the mixture of 900 nM H3K4me3-biotin labeled peptide and 6 μM alpha-ketoglutaric acid with 2 μl of 11-point serial diluted inhibitor in 3% DMSO was added to each well of the plate, followed by the addition of 2 μl of 2.4 nM Jarid1B to initiate the reaction. The reaction mixture was incubated at room temperature for 30 minutes, and terminated by the addition of 6 μl of 5 mM EDTA in LANCE detection buffer containing 50 nM Phycolink Streptavidin-allophycocyanin and 2 nM Europium-anti-H3K4me1-2 antibody. […]
[3] = molecular target: Lysine-specific demethylase 5A (Homo sapiens, UniProt P29375); test: Enzymatic Assay: The enzymatic assay of Jarid1A activity is based upon Time Resolved-Fluorescence Resonance Energy Transfer (TR-FRET) detection. The ability of test compounds to inhibit the activity of Jarid1A was determined in 384-well plate format under the following reaction conditions: 1 nM Jarid1A, 300 nM H3K4me3-biotin labeled peptide (Anaspec cat #64357), 2 μM alpha-ketoglutaric acid in …
Sequence of Lysine-specific demethylase 5A (P29375 whole entry): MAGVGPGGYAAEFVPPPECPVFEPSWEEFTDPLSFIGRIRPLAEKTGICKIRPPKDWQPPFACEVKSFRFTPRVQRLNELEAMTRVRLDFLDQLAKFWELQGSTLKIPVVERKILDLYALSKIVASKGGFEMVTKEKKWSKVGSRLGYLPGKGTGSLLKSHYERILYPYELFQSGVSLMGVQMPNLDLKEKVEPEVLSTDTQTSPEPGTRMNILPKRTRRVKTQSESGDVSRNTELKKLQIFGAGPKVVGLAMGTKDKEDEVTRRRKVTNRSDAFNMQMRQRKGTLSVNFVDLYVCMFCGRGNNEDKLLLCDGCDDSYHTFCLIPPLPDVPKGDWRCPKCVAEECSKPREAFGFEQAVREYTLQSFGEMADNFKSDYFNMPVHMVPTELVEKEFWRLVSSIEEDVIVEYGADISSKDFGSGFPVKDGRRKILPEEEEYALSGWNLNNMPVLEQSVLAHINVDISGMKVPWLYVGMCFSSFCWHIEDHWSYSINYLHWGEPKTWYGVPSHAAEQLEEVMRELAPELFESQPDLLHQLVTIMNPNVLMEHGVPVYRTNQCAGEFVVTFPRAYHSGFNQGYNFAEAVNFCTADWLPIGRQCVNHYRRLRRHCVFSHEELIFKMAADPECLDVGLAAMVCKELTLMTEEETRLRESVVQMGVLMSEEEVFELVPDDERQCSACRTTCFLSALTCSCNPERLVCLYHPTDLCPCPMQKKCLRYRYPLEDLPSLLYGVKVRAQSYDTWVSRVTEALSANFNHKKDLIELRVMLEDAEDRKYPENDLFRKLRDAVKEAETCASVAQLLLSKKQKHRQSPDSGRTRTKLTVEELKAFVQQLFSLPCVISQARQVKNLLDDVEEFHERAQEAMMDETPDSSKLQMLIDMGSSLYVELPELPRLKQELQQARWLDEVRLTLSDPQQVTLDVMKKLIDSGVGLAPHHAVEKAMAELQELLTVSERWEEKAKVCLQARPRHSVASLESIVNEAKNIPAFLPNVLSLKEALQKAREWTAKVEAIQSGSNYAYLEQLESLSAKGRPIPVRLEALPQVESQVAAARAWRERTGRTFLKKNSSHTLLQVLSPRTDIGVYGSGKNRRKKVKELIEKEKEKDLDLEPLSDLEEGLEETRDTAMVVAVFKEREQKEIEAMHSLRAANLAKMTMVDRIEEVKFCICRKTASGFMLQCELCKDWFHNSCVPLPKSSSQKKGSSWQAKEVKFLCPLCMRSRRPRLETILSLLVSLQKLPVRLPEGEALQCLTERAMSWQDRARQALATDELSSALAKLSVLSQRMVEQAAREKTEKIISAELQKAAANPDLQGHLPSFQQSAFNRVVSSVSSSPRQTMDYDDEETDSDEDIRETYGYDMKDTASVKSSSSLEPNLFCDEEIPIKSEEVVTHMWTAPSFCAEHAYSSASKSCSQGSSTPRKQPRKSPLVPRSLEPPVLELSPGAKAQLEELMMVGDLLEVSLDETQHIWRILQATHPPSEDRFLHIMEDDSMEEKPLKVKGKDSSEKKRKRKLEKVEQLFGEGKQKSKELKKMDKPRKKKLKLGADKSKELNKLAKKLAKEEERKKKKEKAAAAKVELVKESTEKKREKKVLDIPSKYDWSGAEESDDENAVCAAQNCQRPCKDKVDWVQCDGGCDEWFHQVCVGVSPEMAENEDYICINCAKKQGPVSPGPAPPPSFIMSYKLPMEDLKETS

Sequence of Lysine-specific demethylase 5B (Q9UGL1 whole entry): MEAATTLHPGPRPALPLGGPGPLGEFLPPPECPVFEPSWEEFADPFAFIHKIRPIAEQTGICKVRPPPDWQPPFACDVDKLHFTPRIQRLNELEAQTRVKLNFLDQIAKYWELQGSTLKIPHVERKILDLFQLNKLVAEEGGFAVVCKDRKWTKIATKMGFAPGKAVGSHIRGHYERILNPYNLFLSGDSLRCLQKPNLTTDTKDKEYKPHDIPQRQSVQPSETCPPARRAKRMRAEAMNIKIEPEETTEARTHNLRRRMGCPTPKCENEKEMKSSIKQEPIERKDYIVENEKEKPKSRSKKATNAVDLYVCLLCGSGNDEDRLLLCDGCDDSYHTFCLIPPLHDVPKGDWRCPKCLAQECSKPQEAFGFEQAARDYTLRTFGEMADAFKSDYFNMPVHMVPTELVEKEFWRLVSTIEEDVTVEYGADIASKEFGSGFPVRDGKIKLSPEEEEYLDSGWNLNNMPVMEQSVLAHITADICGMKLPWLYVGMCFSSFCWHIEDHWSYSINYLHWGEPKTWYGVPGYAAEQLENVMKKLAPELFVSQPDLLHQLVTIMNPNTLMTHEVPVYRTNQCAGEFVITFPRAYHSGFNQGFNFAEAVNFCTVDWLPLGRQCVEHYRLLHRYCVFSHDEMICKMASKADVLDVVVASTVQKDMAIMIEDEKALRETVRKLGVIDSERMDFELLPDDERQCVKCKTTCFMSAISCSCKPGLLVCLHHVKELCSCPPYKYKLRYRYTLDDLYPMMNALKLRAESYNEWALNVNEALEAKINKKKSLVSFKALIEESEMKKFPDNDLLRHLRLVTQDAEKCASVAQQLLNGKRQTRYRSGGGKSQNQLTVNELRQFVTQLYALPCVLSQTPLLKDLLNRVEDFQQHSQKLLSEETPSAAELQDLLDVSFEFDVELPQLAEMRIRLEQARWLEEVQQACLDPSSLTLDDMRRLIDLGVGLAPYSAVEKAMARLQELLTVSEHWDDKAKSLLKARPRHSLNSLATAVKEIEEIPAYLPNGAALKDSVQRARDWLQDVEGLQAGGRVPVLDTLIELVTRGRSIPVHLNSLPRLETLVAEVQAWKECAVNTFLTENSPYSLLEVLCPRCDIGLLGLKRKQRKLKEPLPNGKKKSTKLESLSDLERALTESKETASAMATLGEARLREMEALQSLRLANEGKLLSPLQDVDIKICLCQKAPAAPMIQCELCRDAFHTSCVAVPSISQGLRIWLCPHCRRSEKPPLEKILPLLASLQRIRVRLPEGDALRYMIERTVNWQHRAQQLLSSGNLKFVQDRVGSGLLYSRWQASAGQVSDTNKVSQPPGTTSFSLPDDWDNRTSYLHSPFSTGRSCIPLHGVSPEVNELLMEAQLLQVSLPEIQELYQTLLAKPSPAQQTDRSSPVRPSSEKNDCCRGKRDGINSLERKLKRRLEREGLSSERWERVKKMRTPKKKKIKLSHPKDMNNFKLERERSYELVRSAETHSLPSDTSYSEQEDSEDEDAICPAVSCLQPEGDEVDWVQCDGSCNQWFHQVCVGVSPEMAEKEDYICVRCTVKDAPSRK

IC50 [1]: < 100 nM
IC50 [2]: < 100 nM
IC50 [3]: < 100 nM
Structure (SMILES): O=C(O)c1ccncc1NCC1CCc2ccccc21 (stereo not drawn)
